# Columns and labels:
# [1] = biological target: T1, nanoKAZ (mutated catalytic 19 kDa domain of Oplophorus luciferase) (Oplophorus gracilirostris, UniProt Q9GV45, A31E/A60N/A81I/F95D/I117V/K70R/L54V/L99Q/M102K/N193R/P142E/Q151K/Q38R/Q45L/V71I/Y165I); assay: Luminescence activity of secreted codon-optimized nanoKAZ domain protein with coelenterazine analogs as substrates; type: biochemical; conditions: for Relative maximum luminescence intensity (Imax) / Relative amount of integrated luminescence intensity (1 min.): relative to coelenterazine = 1.0; for Relative maximum luminescence intensity (Imax): 1 μg substrate, 50 mM Tris-HCl (pH 7.6)-10 mM EDTA, 60 seconds; for Relative amount of integrated luminescence intensity (1 min.): integrated for 60 seconds; for Luminescence pattern (decay): FIG. 3, recombinant nanoKAZ
# T1 construct: secretory signal peptide of Gaussia luciferase (GLsp) (N, cleaved yes); made in house; host or cells: CHO-K1 transiently transfected with pcDNA3-GLsp-nanoKAZ; unpurified culture medium used as the enzyme solution
# T1 sequence (Q9GV45 other isoform, or with tags, fused parts or gaps with the stated changes): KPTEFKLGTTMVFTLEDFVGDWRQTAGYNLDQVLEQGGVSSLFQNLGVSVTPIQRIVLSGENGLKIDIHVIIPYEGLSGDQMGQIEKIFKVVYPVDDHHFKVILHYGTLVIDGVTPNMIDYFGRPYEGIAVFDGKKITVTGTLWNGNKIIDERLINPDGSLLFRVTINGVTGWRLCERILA
# Method: The Chinese hamster ovary-derived cell line CHO-K1 was cultured in Ham's F-12 medium (manufactured by Wako Pure Chemical Industries, Ltd.) containing 10% (v/v) calf fetal serum (manufactured by Biowest Inc.), and cultured in DMEM (manufactured by Wako Pure Chemical Industries, Ltd.) containing 10% (v/v) calf fetal serum (manufactured by Biowest Inc.). The respective cells were seeded in a 6-well culture plate (n=2) with 1×10^5 cells/well/2 mL medium, and cultured in an incubator at 37° C. in 5% CO2, respectively. After 24 hours, the purified pcDNA3-GLsp-nanoKAZ plasmid was transfected into CHO-K1 cells using a FuGene HD Transfection Kit (manufactured by Promega Corp.), which was used in the subsequent experiment. Specifically, 1 μg of the pcDNA3-GLsp-nanoKAZ expression vector and 3 μL of FuGene HD were added to 100 μL of medium, which was allowed to stand at room temperature for 15 minutes. Then 100 μL of the DNA-FuGene complex solution was added to the cells in the 6 wells. After incubation for 48 hours, the culture medium was recovered and used as the secreted nanoKAZ enzyme solution for assay.
# The enzyme solution, 5 μL, for assay obtained in EXAMPLE 4 (2) was added to 100 pt of 50 mM Tris-HCl (pH 7.6)-10 mM EDTA (Wako Pure Chemical Industries) containing 1 μg each of various coelenterazine analogs to initiate the luminescence reaction. The luminescence activity was determined by a luminometer (AB2200, manufactured by Atto Company) for 60 seconds and expressed by the maximum luminescence intensity (Imax) and the relative light units (du) of the lumimescence intensity integrated for 60 seconds.
# The coelenterazine analogs used for substrate specificity analysis except for the analog described in EXAMPLE 1 were synthesized by the methods as described in the journals below, respectively. Specifically, bis-coelenterazine was synthesized by the method described in Nakamura et al. (1997) Tetrahedron Lett. 38: 6405-6406; Furimazine (Compound No. 3939 referred to in the journal) and C6d-coelenterazine (Compound No. 3840 referred to in the journal) by the method described in Hall et al. (2012) ACS Chem. Biol. […]; and the C2-coelenterazine analogs by the method described in Inouye et al (2010) Anal. Biochem. 407: 247-252. The enzyme solution of the culture medium in which nanoKAZ was secreted by the method as described in EXAMPLE 4 (2) was used for determining the luminescence activity with coelenterazine or its analogs. […] As a result, the luminescence substrates which can markedly improve the luminescence intensity and the amount of the integrated luminescence intensity to compare with furimazine are bis-coelenterazine and C6d-f-coelenterazine, showing a continuous luminescence without a decay of the luminescence intensity.
# Renilla luciferase = biological target: T2, Renilla luciferase (Renilla reniformis, UniProt P27652); assay: Substrate specificity of various luciferases: Renilla luciferase; type: biochemical; conditions: relative to coelenterazine = 100
# T2 construct: made in house
# T2 sequence (P27652 1-311): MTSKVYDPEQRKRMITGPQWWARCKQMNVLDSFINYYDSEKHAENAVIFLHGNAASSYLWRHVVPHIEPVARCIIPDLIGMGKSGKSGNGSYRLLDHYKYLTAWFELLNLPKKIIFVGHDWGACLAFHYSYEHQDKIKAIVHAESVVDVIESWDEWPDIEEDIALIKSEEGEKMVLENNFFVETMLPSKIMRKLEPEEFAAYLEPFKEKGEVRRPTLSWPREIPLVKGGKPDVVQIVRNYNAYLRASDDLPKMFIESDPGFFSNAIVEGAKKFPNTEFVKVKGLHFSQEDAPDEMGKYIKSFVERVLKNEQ
# Method: (§1) The preparation of various luciferases and the determination of their luminescence activities were carried out in accordance with the methods as previously reported. The catalytic 19 kDa domain of Oplophorus luciferase was produced by the method described in Inouye S. & Sasaki S. (2007) Protein Express. Purif. 56, 261-268, Gaussia luciferase by the method described in Inouye S & Sahara Y. (2008) Biochem. Biophys. Res. Commun. 368, 600-605, Renilla luciferase and Renilla luciferase 547 by the method described in Inouye S. et al. (2013) Protein Express. Purif. 88, 150-156, and aequorin by the method described in Inouye S et al. (2010) Anal. Biochem. 407, 247-252, respectively, and used.
# [2] = biological target: T3, Catalytic 19 kDa domain of Oplophorus luciferase (Oplophorus gracilirostris, UniProt Q9GV45); assay: Substrate specificity of various luciferases: catalytic 19 kDa domain of Oplophorus luciferase; type: biochemical, Oplophorus grachlorostris; conditions: for Maximum Luminescence Intensity (Imax, %) / Relative Amount of Integrated Luminescence Intensity (1 min, %): relative to coelenterazine = 100
# T3 construct: The catalytic 19 kDa domain of Oplophorus luciferase was produced by the method described in; made in house
# T3 sequence (Q9GV45 28-196): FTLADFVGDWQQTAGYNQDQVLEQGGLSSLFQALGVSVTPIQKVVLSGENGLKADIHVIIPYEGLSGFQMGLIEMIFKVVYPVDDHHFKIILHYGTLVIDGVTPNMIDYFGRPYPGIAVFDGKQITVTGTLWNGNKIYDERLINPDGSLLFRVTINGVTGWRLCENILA
# Method: as §1
# Aequorin = biological target: T4, Aequorin (Aequorea victoria, UniProt P07164); type: biochemical, jellyfish; conditions: relative to coelenterazine = 100
# T4 construct: made in house
# T4 sequence (P07164 8-196): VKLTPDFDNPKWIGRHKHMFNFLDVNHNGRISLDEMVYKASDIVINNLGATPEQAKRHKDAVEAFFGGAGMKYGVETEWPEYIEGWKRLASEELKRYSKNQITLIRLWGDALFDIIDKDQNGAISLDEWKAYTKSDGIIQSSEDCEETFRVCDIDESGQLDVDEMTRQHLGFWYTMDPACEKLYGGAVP
# Method: as §1
# Renilla luciferase 547 = assay: Substrate specificity of various luciferases: Renilla luciferase 547; type: biochemical; conditions: relative to coelenterazine = 100
# Method: as §1
# Gaussia luciferase = assay: Substrate specificity of various luciferases: Gaussia luciferase; type: biochemical; conditions: relative to coelenterazine = 100
# Method: as §1
# [3] = Stability of coelenterazine analogs in aqueous solution (HPLC); type: physicochemical; conditions: 30 mM Tris-HCl (pH 7.6)
# Method: The stability of coelenterazine analogs in an aqueous solution was examined by dissolving 10 μg of coelenterazine analogs in 0.5 mL of 30 mM Tris-HCl (pH 7.6), allowing the solution to stand at 37° C. for 22 hours, and then the degradation of coelenterazine analogs was determined by HPLC analysis. The HPLC analysis was performed by the modified method as described in Inouye S. et al. (2013) Protein Express. Purif. 88, 150-156.
# [4] = incubation time at 37° C. 0 hour
# [5] = incubation time at 37° C. 22 hours
Compound,Relative maximum luminescence intensity (Imax) [1],Relative amount of integrated luminescence intensity (1 min.) [1],"Maximum Luminescence Intensity (Imax, %) (Renilla luciferase) [%]","Relative Amount of Integrated Luminescence Intensity (1 min, %) (Renilla luciferase)","Maximum Luminescence Intensity (Imax, %) [2] [%]","Relative Amount of Integrated Luminescence Intensity (1 min, %) [2]","Maximum Luminescence Intensity (Imax, %) (Aequorin) [%]","Relative Amount of Integrated Luminescence Intensity (1 min, %) (Aequorin)","Maximum Luminescence Intensity (Imax, %) (Renilla luciferase 547) [%]","Relative Amount of Integrated Luminescence Intensity (1 min, %) (Renilla luciferase 547)","Maximum Luminescence Intensity (Imax, %) (Gaussia luciferase) [%]","Relative Amount of Integrated Luminescence Intensity (1 min, %) (Gaussia luciferase)","Residual Ratio of Coelenterazine Analog (%) [3, 4] [%]","Residual Ratio of Coelenterazine Analog (%) [3, 5] [%]",Luminescence pattern (decay) [1],"Suitability as substrate ([2]; in words, from TABLE 2)"
coelenterazine [Coelenterazine (CTZ)],1.0,1.0,100,(100) %,100,(100) %,100,(100) %,100,(100) %,100,(100) %,100,2,,
bis-coelenterazine,10.3,9.7,0.04,(0.03) %,108,(102) %,0.01,(0.01) %,0.07,(0.08) %,0,(0) %,100,38,did not exhibit a rapid decay,
C6d-coelenterazine,0.8,0.7,0.02,(0.02) %,9.0,(7.7) %,0.03,(0.03) %,0.12,(0.12) %,0.8,(0.8) %,,,,
Oc1ccc(-c2cn3c(O)c(Cc4ccccc4)nc3c(Cc3ccccc3)n2)cc1 [h-Coelenterazine],17.0,10.1,68.5,(73.5) %,92.6,(101) %,84.0,(68.0) %,24.5,(16.4) %,8.2,(12.1) %,,,,
O=c1c(Cc2ccco2)nc2c(Cc3ccccc3)[nH]c(-c3ccccc3)cn1-2 [Furimazine],5.5,5.7,0.01,(0.01) %,72.2,(65.2) %,0.02,(0.02) %,0.01,(0.01) %,0,(0) %,100,3,did not exhibit a rapid decay,
"O=c1c(Cc2ccc(F)cc2)nc2c(Cc3ccccc3)[nH]c(-c3ccccc3)cn1-2 [C6d-f-Coelenterazine, C6d-f-coelenterazine]",10.1,10.1,0.07,(0.01) %,100,(105) %,0.12,(0.19) %,0.17,(0.13) %,0,(0) %,100,49,did not exhibit a rapid decay,good substrate
O=c1c(Cc2ccc(F)cc2)nc2c(Cc3ccccc3)[nH]c(-c3ccc(O)cc3)cn1-2 [f-Coelenterazine],19.5,11.1,65.3,(71.4) %,78.6,(85.7) %,42.3,(59.0) %,78.0,(68.1) %,5.0,(10) %,,,,
